Measured values reported in patent publication US20030109501A1, “High throughput assay for N-sulfotransferase activity of glucosaminyl N-deacetylase/N-sulfotransferases” (priority 2001, published 2003).

What was measured:
Type in all cases: biochemical
[1] = target: T1, recombinant human sulfotransferase domain of NDST-2 (ST2) (Homo sapiens, UniProt P52849); assay: Solid phase SPA assay for N-sulfotransferase activity (ST2); details: ST2 2.5 μg/well, room temperature 5 h; for IC50: fully desulfated heparin pre-coated WGA-SPA beads, 35[S]-PAPS 10 nCi/well
T1 construct: subcloning the N-sulfotransferase domain of NDST-2 from the vector pFASTBac-GST-NDST-2; made in house; host or cells: E. coli BL21(DE3)pLysS
T1 sequence (P52849 598-883 limits assumed): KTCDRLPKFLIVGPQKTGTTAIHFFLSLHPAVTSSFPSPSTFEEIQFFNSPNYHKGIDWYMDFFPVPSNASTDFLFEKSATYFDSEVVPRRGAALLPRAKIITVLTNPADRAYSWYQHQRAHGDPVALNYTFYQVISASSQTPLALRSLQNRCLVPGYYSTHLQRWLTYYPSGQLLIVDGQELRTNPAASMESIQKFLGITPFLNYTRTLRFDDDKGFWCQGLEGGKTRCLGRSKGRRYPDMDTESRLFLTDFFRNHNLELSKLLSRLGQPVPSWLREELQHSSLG
Protocol: (§1) The assays were conducted at room temperature in Reaction Buffer whose components were described in Example 3. The following components were added into the wells of a 96-well white plate (29444-020, Corning, N.Y.) at a final volume of 100 μl/well.
(§2) 1. 25 μl of the Reaction Buffer.
(§3) 2. 25 μl of desulfated heparin-coated beads (20 mg/ml, 500 μg/well).
(§4) 3. 25 μl of enzyme (ST2, 0.1 mg/ml, 2.5 μg/well or NDST-2, 17.6 μg/ml, 0.44 μg/well) and the plate was incubated on a shaker with slight agitation for 2 min.
(§5) 4. 25 μl of ^35[S]-PAPS (NEG-010, 0.832 mCi/ml, NEN Life Science, Boston, Mass.) (0.4 μCi/ml, 10 nCi/well).
The plate was sealed and incubated for 2-24 h. Radioactivity of the plate was then read in a Packard TopCount microplate scintillation counter (Packard Instrument, Downers Grove, Ill.). The signal-to-noise ratio is the result of counts-per-minute (CPM) in the presence of enzyme divided by counts-per-minute in the absence of enzyme.
(§6) A list of 335 compounds was obtained from a search of the Bristol-Myers Squibb inventoried database using the PHASE program and the bound conformation of PAPS taken from the NDST-1 crystal structure [Kakuta, Y. et al. (1999) J. Biol. Chem. 274, 10673-10676]. The PHASE program is an internally developed program for database searches based on ligand molecular shape and pharmacophroic elements. […] Percentage of inhibition was determined by equation; % Inhibition=(1-cpm with compound/cpm without compound)×100. […]
The plate was incubated at room temperature and 5 h. The plate was read in the TopCount scintillation counter. […] The Km of PAPS is determined as a PAPS concentration by using the Michaelis-Menten equation: y=5×10^−5x+5×10^−5.
Compound A (FIGS. 6A and C) and Compound B (FIGS. 6B and D) in DMSO were added into 96-well white plates at the indicated concentrations. […] The plates were read in the TopCount microplate scintillation counter. Percentage of inhibition was determined by the following equation: % Inhibition=(1-cpm with compound/cpm without compound)×100. IC50 was determined by the Microsoft XLfit program.

[2] = target: T2, recombinant human NDST-2 (wild-type) (Homo sapiens, UniProt P52849); assay: Manual sulfotransferase assay; details: final concentration of 6.25 μM; N-acetyl-de-O-sulfated heparin acceptor, 37° C. for 30 min; read-out: percent inhibition of N-sulfotransferase activity
T2 construct: the DNA fragment consisting of nucleotides 133-2651 of the human NDST-2 cDNA; made in house; host or cells: DG44 CHO cells (secreted, harvested from supernatant)
T2 sequence (P52849 40-883 limits assumed): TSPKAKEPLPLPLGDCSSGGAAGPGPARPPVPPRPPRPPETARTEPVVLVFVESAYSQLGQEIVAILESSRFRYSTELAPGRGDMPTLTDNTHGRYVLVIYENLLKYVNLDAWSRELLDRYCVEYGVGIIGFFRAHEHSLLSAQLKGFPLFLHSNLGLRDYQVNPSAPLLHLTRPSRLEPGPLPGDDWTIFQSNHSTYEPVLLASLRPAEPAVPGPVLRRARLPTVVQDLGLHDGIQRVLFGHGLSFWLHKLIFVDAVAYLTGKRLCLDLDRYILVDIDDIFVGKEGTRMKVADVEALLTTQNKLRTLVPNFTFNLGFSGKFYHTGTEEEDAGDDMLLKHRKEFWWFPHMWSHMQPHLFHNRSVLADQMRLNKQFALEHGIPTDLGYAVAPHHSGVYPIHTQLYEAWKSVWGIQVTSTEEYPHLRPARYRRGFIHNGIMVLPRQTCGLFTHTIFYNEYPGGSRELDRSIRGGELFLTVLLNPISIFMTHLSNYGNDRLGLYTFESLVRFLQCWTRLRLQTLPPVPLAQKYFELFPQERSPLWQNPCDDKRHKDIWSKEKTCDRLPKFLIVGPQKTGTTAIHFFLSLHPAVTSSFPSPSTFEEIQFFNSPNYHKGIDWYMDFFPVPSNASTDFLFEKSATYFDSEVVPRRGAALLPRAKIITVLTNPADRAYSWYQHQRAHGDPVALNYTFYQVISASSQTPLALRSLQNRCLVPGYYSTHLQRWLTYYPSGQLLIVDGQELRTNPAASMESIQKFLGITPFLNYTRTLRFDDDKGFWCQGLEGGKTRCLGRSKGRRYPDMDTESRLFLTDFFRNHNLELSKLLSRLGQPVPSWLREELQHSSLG
Protocol: The manual sulfotransferase assays were conducted basically as described by Pettersson [Pettersson, I. et al. (1991) J. Biol. Chem. 266, 8044-8049; which is hereby incorporated herein by reference]. The following components were added into Eppendorf vials at a final volume of 200 μl/vial.
1. 119 μl of the Reaction Buffer whose components are described in EXAMPLE 3 herein
2. 1 μl of N-acetyl-de-O-sulfated heparin used as a sulfate acceptor (A6039, Sigma, 25 mg/ml, […]).
3. 20 μl of enzyme NDST-2 (17.6 μg/ml, […]).
4. 50 μl of test compounds (compound-treated reaction, 25 μM, 6.25 μM/vial) or 50 μl of 10% DMSO in reaction buffer (untreated reaction).
5. 10 μl of ^35[S]-PAPS used as a sulfate donor (2 μCi/ml, 100 nCi/vial).
All vials were incubated at 37° C. for 30 min. Reactions were stopped by the addition of 400 μl of 100% ethanol and 35 μl of 3 M sodium acetate into the vials. The samples were placed on dry ice for 5 min and then centrifuged at speed of 14,000 rpm for 5 min. The supernatants were discarded while the pellets were washed twice with 70% ethanol and then dissolved in 100 μl of water. […] Radioactivity was determined in a Beckman model LS 3800 scintillation counter (Beckman Coulter, Fullerton, Calif.). […]

[3] = target: T3, recombinant human wild-type NDST-2 (Homo sapiens, UniProt P52849); assay: Solid phase SPA assay for N-sulfotransferase activity (wild-type NDST-2); details: wild-type NDST-2 0.4 μg/well, fully desulfated heparin pre-coated WGA-SPA beads, 35[S]-PAPS 10 nCi/well, room temperature 5 h
T3 construct: the DNA fragment consisting of nucleotides 133-2651 of the human NDST-2 cDNA; made in house; host or cells: DG44 CHO cells (secreted, harvested from supernatant)
T3 sequence (P52849 40-883 limits assumed): T2 sequence (P52849 40-883 limits assumed)
Protocol: as §1, §2, §3, §4, §5
The plate was sealed and incubated for 2-24 h. Radioactivity of the plate was then read in a Packard TopCount microplate scintillation counter (Packard Instrument, Downers Grove, Ill.). […]
as §6, with “10673-10676].” for “10673-10676]. The PHASE program is an internally developed program for database searches based on ligand molecular shape and pharmacophroic elements.”
Compound A (FIGS. 6A and C) and Compound B (FIGS. 6B and D) in DMSO were added into 96-well white plates at the indicated concentrations. […] The plates were read in the TopCount microplate scintillation counter. […]

| Structure (SMILES) | IC50 [1] | inhibition at 6.25 µM [2] | IC50 [3] | Km ([1]; double-reciprocal plot, read-out: Km of PAPS) |
| --- | --- | --- | --- | --- |
| CC(C)c1ccc(O)c(CN(CP(=O)(O)O)CP(=O)(O)O)c1 [Compound B] | ~520 nM | 64.8% | ~2440 nM | – |
| O=P(O)(O)CC(Cc1ccc(Cl)cc1)CP(=O)(O)O [Compound A] | ~399 nM | 94.7% | ~1720 nM | – |
| Nc1ncnc2c1ncn2[C@@H]1O[C@H](COP(=O)(O)OS(=O)(=O)O)[C@@H](OP(=O)(O)O)[C@H]1O [PAPS, adenosine 3′-phosphate 5′-phosphosulfate, reference compound] | – | – | – | ~1 µM |
